Laboratory results as given in patent publication EP0423240B1, “MODULATION OF VIRUS-HOST CELL INTERACTIONS USING CYCLIC OLIGOSACCHARIDES” (THE TRUSTEES OF THE UNIVERSITY OF PENNSYLVANIA, priority 1988, dated 1990).
≈ marks a conversion by molar mass, not a printed value.

How the values were obtained:
[1] = tested on: HTLV-IIIb cell free virus; experiment: Reverse transcriptase assay of HIV infectivity, cell free virus on target cells, 10 day incubation; format: cell-based, HIV-1; conditions: 1/2 dilutions from 2.5 mM, result in words
Experimental: Figure 2 illustrates the effects of cyclodextrin and cyclodextrin derivatives on HIV infectivity as determined by reverse transcriptase activity. Samples assayed are (A) untreated control cells, (B) β-cyclodextrin unsubstituted ring, (C) partially sulfated β-cyclodextrin ring, (D) propylated β-cyclodextrin ring, (E) sulfated β-cyclodextrin ring, and (F) methylated β-cyclodextrin ring. Numbers indicate 1/2 dilutions of test compounds with 1 = 2.5 mM concentration of compound.
Virus infected cells were pelleted by centrifugation and 50 µl of culture suprenatant was collected from each well for assay. Culture supernatant (25 µl) was plated in 96 well round bottomed plates and 50 µl of transcriptase cocktail was added to each well. Cocktail is 50 mM Tris-HC1, pH 8.0, 20 mM DTT, 0.6 mM MnC1₂, 60 mM NaC1, 0.05% NP-40, 5 µg/ml dt (oligodeoxythymidilic acid), 10 µg/ml poly A (polyriboadenylic acid), 10 µM dTTP, 1 Ci/mm ³²P dTTP. Plates were then incubated for 60 minutes at 37°C. After incubation samples were spotted onto Whatman DEAE-81 paper, washed and analyzed by counting or direct autoradiography.
The ability of cyclodextrins to inhibit HIV infection was assessed in vitro utilizing reverse transcriptase assays as described Section 6.1.2, supra. HTLV-IIIb cell free virus stocks were inoculated onto target cells in the presence or absence of the synthetic compounds.

Water solubility at 0°C = format: physicochemical; conditions: 0°C, H₂O
Experimental: The cyclic oligosaccharide derivatives useful in the present invention are highly hydrophilic and therefore very water soluble. A highly hydrophilic character probably is important to allow interaction with cellular surfaces. The hydrophilic activity is likely roughly indicated by the affinity to water, as measured by water solubility. It is important to measure the same at 0°C since at higher temperatures the most suitable derivative have solubilities so high that meaningful measurements are difficult.

HIV-1 [2] = experiment: HIV-1 induced syncytia assay, IIIb infected H9 cells cocultured with Supt-1 target cells; format: cell-based; conditions: for number of syncytia formed: HIV-1, number and size of syncytia
Experimental: (§1) For the assay of HIV-1 fusion, Supt T1 cells were used as target cells. They fuse rapidly when cocultured with HIV-1 (H9/IIIb) producing cell lines. For the assay of HIV-2 mediated cell fusion, H9 cells were used as target cells. They fuse rapidly when cocultured with HIV-2 (CEMROD-2) producing cell lines. HIV infected cells were plated in 96 well plates (10⁴ cells/well in RPMI 1640 + 10% FCS) and incubated with or without dilution of compounds for 30 minutes at 37°C. Target cells are then added 5 x 10⁵/well and the number of syncytia are qualitatively determined after the incubation periods described in the text.
In a series of additional experiments, analysis of HIV-1 induced syncytia was performed by coculturing H9 cells infected with the IIIb isolate with uninfected Supt-1 (a human CD4+ T cell line) cells as targets. […]

HIV-2 = HIV-2 induced syncytia assay, ROD-2 infected cells cocultured with H9 target cells; format: cell-based; conditions: HIV-2, number and size of syncytia
Experimental: as §1, with “text. […]” for “text.”

HIV-1 [3] = experiment: Viral RNA analysis by dot blot; format: cell-based; conditions: target cells infected in the presence of compound, 1 mM, 72 hours post-infection
Experimental: Virus particles were incubated with target cells in the presence or absence of […] of β-CD-14S. At 72 hours post infection, the cells were washed and dot blot assays were performed to determine the presence or absence of viral RNA production. In (A), target cells were infected in the presence of sulfated β-cyclodextrin (lane A), in the absence of cyclodextrins (lane B), or in the presence of unsubstituted β-cyclodextrin (lane C). 1/2 dilutions of cells are from left to right starting with 10⁶ cell/well utilized. In (B), virally infected cells (+) or uninfected cells (-) were assayed for their ability to produce viral RNA by dot blot analysis. CD = infected cells incubated with 1 mM of β-CD-14S. 1/2 dilutions of cells are from top to bottom starting with 10⁶ cell/well.
Virus treated cells were grown in tissue culture and harvested for assay at 72 hrs. post-infection. The cell concentrations were then adjusted to 1 x 10⁶ cells/m1 with phosphate buffered saline and spotted directly onto prewetted gene screen utilizing a dot blot apparatus. The filter was then fixed in 3% NaC1, 10 mM NaH₂PO₄, (pH 7.2) containing 1% gluteraldehyde at 4°C for 1 hr. The fixed blot was then rinsed three times with proteolytic buffer (50mM EDTA, 0.1 M Tris-HC1 (pH 8.0), 20 µg/ml proteinase K) for 30 minutes at 37°C. The filter was air dried until being probed. A Sall-Xho1 probe derived from the pIIIenv1 plasmid (a generous gift of Dr. J. Sodrofsky) and encoding the envelope region of the HXB2, HIV-1 virus was labeled by the random primer method using standard technology and hybridized to the filter as previously described (Weiner et al., 1986, Cell Immunol. 100:197).
To determine if the cyclodextrins were interfering with steps relevant to viral replication, the ability of these compounds to inhibit viral nucleic acid synthesis was determined. Virus particles were incubated with target cells in the presence or absence of 1 mM of β-CD-14S. At 72 hours post-infection, the cells were washed and dot blot assays were performed to determine the presence or absence of viral RNA production. […]

OC[C@H]1O[C@@H]2O[C@H]3[C@H](O)[C@@H](O)[C@@H](O[C@H]4[C@H](O)[C@@H](O)[C@@H](O[C@H]5[C@H](O)[C@@H](O)[C@@H](O[C@H]6[C@H](O)[C@@H](O)[C@@H](O[C@H]7[C@H](O)[C@@H](O)[C@@H](O[C@H]8[C@H](O)[C@@H](O)[C@@H](O[C@H]1[C@H](O)[C@H]2O)O[C@@H]8CO)O[C@@H]7CO)O[C@@H]6CO)O[C@@H]5CO)O[C@@H]4CO)O[C@@H]3CO [Beta-CD, β-cyclodextrin, reference compound]
inhibition of viral infectivity (reverse transcriptase activity) [1]: no inhibition of viral infectivity | solubility (Water solubility at 0°C): 7000 µg/mL (≈ 6.17 mM) | number of syncytia formed (HIV-1 [2]; 1.3 mM): 4 L | number of syncytia formed (HIV-1 [2]; 2.5 mM): 4 L | number of syncytia formed (HIV-1 [2]; .01 mM): 4 L | number of syncytia formed (HIV-1 [2]; .02 mM): 4 L | number of syncytia formed (HIV-1 [2]; .04 mM): 4 L | number of syncytia formed (HIV-1 [2]; .08 mM): 4 L | number of syncytia formed (HIV-1 [2]; .16 mM): 4 L | number of syncytia formed (HIV-1 [2]; .32 mM): 4 L | number of syncytia formed (HIV-1 [2]; .63 mM): 4 L | inhibiting syncytia formation of HIV-1 (HIV-1 [2]; result in words): as ineffective as media alone | number of syncytia formed (HIV-2; 1.3 mM): 4 L | number of syncytia formed (HIV-2; 2.5 mM): 4 L | number of syncytia formed (HIV-2; .01 mM): 4 L | number of syncytia formed (HIV-2; .02 mM): 4 L | number of syncytia formed (HIV-2; .04 mM): 4 L | number of syncytia formed (HIV-2; .08 mM): 4 L | number of syncytia formed (HIV-2; .16 mM): 4 L | number of syncytia formed (HIV-2; .32 mM): 4 L | number of syncytia formed (HIV-2; .63 mM): 4 L | HIV-1 specific RNA (HIV-1 [3]): substantial viral RNA was detected
